Like-named read-outs stand apart in the source and are kept apart here. Where a SMILES comes first, the peptide text is derived from it. [ ]: non-standard residue; d: D form. NMeF = CN[CH](Cc1ccccc1)C(=O)O; 2Abz = Nc1ccccc1C(=O)O
Assays:
MCF-7 (breast cancer) = experiment: in vitro cytotoxicity against MCF-7; type: cell-based; conditions: Homo sapiens
Description: (§1) All compounds were evaluated for their in vitro cytotoxicity against four human cancer lines, SF-268 (human glioblastoma carcinoma), MCF-7 (breast cancer), HepG-2 (liver cancer), and A549 (lung cancer), as well as antioxidative activity, α-glucosidase inhibitory activity, and antimicrobial activity against the bacteria Staphylococcus aureus and Bacillus subtilis (Tables S1–S3).
(§2) The details of the experimental procedures for cytotoxic and antioxidative bioassays were described previously in our former paper.

[1] = antioxidative activity (DPPH radical scavenging); conditions: for EC50: DPPH radical scavenging; for Inhibition rate antioxidative activity: primary screening, 100 μM
Description: as §1, §2

Bacillus subtilis = experiment: antibacterial assay, Mueller–Hinton broth microdilution; type: cell-based; conditions: for inhibition at 50 µM: primary screening, read-out: Inhibition rate Bacillus subtilis
Description: (§3) All the compounds were tested for antibacterial activity against Staphylococcus aureus and Bacillus subtilis using the Mueller–Hinton broth microdilution method. Ciprofloxacin was used as a positive control.

Staphylococcus aureus = experiment: as above; type: cell-based; conditions: for inhibition at 50 µM: primary screening, read-out: Inhibition rate Staphylococcus aureus
Description: as §3

[2] = tested on: SF-268 (human glioblastoma carcinoma); experiment: in vitro cytotoxicity against SF-268; type: cell-based
Description: as §1, §2

HepG-2 (liver cancer) = experiment: in vitro cytotoxicity against HepG-2; type: cell-based; conditions: Homo sapiens
Description: as §1, §2

A549 (lung cancer) = experiment: in vitro cytotoxicity against A549; type: cell-based; conditions: Homo sapiens
Description: as §1, §2

[3] = tested on: intersegmental vessel (ISV) formation; experiment: zebrafish assay for in vivo anti-angiogenic activity; conditions: zebrafish embryos
Description: The maintenance of zebrafish and the collection of embryos followed the method in the literature. One day after fertilization, the embryos were dechorionated with tweezers in a Petri dish coated with 1% agarose and distributed into small Petri dishes (35 × 10 mm) with 3 mL of assay solution, depending on the drug treatment. The embryos receiving a mixture of DMSO (0.1%) were used as the vehicle-treated control and were equivalent to a “no treatment” group. All the experiments were repeated at least three times, with 20 embryos per group.

[4] = MCF7, MCF-7 cells, mean ± SD, read-out: IC50 MCF-7
[5] = Table 4, mean ± SD, read-out: MIC Bacillus subtilis
[6] = Table 4, mean ± SD, read-out: MIC Staphylococcus aureus
[7] = SF-268, primary screening, 50 μM, read-out: Inhibition rate SF-268
[8] = MCF7, primary screening, 50 μM, read-out: Inhibition rate MCF-7
[9] = HepG2, primary screening, 50 μM, read-out: Inhibition rate HepG-2
[10] = A549, primary screening, 50 μM, read-out: Inhibition rate A549
[11] = read-out: MIC against Bacillus subtilis
[12] = read-out: MIC against Staphylococcus aureus

Row | Structure (SMILES) | inhibition at 50 µM [2, 7] [%] | inhibition at 50 µM (MCF-7 (breast cancer); [8]) [%] | inhibition at 50 µM (HepG-2 (liver cancer); [9]) [%] | inhibition at 50 µM (Bacillus subtilis) [%] | inhibition at 50 µM (Staphylococcus aureus) [%] | inhibition at 50 µM (A549 (lung cancer); [10]) [%] | Inhibition rate antioxidative activity [1] [%] | further results
1 | COc1cccc2c1C(=O)c1c(O)c3c(c(O)c1C2=O)C[C@@](O)(C(=O)CO)C[C@@H]3O[C@H]1C[C@H](N)[C@H](O)[C@H](C)O1 [Adriamycin, reference compound] | – | – | – | – | – | – | – | IC50 (MCF-7 (breast cancer); [4]): 2.02 ± 0.04 µM
2 | O=C1O[C@H]([C@@H](O)CO)C(O)=C1O [Ascorbic acid, reference compound] | – | – | – | – | – | – | – | EC50 [1]: 11.3 ± 0.56 µM
3 | O=C(O)c1cn(C2CC2)c2cc(N3CCNCC3)c(F)cc2c1=O [Ciprofloxacin, reference compound] | – | – | – | – | – | – | – | MIC (Bacillus subtilis; [5]): 0.09 ± 0.003 µg/mL; MIC (Staphylococcus aureus; [6]): 0.07 ± 0.001 µg/mL
4 | CN1C(=O)C(Cc2ccc(O)cc2)NC(=O)CNC(=O)c2ccccc2NC(=O)C1Cc1ccccc1 (stereo not drawn) [Compound 1, asperhiratide] (cyclo([2Abz]GY[NMeF]); configuration not given here) | 0.82 | 1.03 | 0.38 | 3.87 | 5.22 | 4.4 | 4.30 | inhibitory effect on intersegmental vessel (ISV) formation [3]: weak inhibitory effect
5 | CC1C(=O)OCC1CC(OC(=O)c1ccccc1)C(C)(O)C1CCC2(O)C3=CC(=O)C4CC(O)C(O)CC4(C)C3CCC12C [Compound 2, 2S,3R,5R,9S,10R,13R,14R,17S,20R,22R,24S,27S-29-norcyasterone-22-O-benzoate] | 1.43 | 1.01 | 1.45 | 0.67 | 4.34 | 1.21 | 1.60 | –
6 | C=C1CCC2CC1C2(C)C1CCC(C)C(=O)O1 (stereo not drawn) [Compound 3, asperhiratone] | 2.31 | 3.24 | 0.13 | 9.17 | 7.98 | 0.83 | 2.00 | –
7 | CC(C)[C@H](C)C[C@@H](O)[C@](C)(O)C1CC[C@@]2(O)C3=CC(=O)C4C[C@@H](O)CC[C@]4(C)C3CC[C@]12C (stereo partly drawn) [Compound 4, schizaeasterone A] | 8.79 | 19.1 | 1.57 | 5.23 | 19.4 | 8.6 | 2.80 | –
8 | C=C1C[C@]2(O)[C@@]3(C)CCC(=O)C(C)(C)C3=C(O)C(=O)[C@@]2(C)[C@@H]2C(=O)O[C@@](C)(C(=O)OC)C(=O)[C@@]12C [Compound 5, terretonin] | 4.58 | 5.62 | 3.52 | 8.18 | 11.8 | 2.97 | 1.90 | –
9 | CC(C)[C@H](C)/C=C/[C@@H](C)[C@H]1CCC2C3=CC(=O)O[C@@]3(O)CC[C@@]21C (stereo partly drawn) [Compound 6, demethylincisterol A2] | 93.2 | 92.2 | 81.4 | 79.6 | 29.4 | 0.41 | 1.00 | IC50 ([2]; SF-268 cells, mean ± SD, read-out: IC50 SF-268): 34.8 ± 0.95 µM; IC50 (MCF-7 (breast cancer); [4]): 39.4 ± 0.52 µM; IC50 (HepG-2 (liver cancer); HepG2, HepG-2 cells, mean ± SD, read-out: IC50 HepG-2): 43.6 ± 2.08 µM; MIC (Bacillus subtilis; [5]): 10.3 ± 0.76 µg/mL; MIC (Bacillus subtilis; [11]): 10.3 ± 0.76 µM; IC50 (A549 (lung cancer); A549 cells, mean ± SD, read-out: IC50 A549): 50.2 ± 0.54 µM
10 | CC(C)=CC=CC(C)C1CCC2(C)CC3C(C)=CC(=O)C3C(C(=O)O)=CCC12 (stereo not drawn) [Compound 7, asperophiobolin E] | 9.64 | 38.8 | 40.7 | 94.3 | 82.4 | 0.58 | 3.60 | MIC (Bacillus subtilis; [5]): 17 ± 1.25 µg/mL; MIC (Bacillus subtilis; [11]): 17 ± 1.25 µM; MIC (Staphylococcus aureus; [6]): 103 ± 4.5 µg/mL; MIC (Staphylococcus aureus; [12]): 103 ± 4.5 µM
11 | COC(=O)[C@]1(Cc2ccc(O)c(CC=C(C)C)c2)OC(=O)C(O)=C1c1ccc(O)cc1 [Compound 8, butyrolactone I] | – | – | – | 91.3 | 84.4 | – | 2.50 | IC50 ([2]; SF-268, read-out: IC50 SF-268): 31.4 ± 1.98 µM; inhibition at 50 µM ([2]; SF-268, read-out: Inhibition rate SF-268): 41.9%; IC50 (MCF-7 (breast cancer); MCF7, read-out: IC50 MCF-7): 38.6 ± 2.48 µM; inhibition at 50 µM (MCF-7 (breast cancer); MCF7, read-out: Inhibition rate MCF-7): 50.7%; IC50 (HepG-2 (liver cancer); HepG2, read-out: IC50 HepG-2): 31 ± 3.04 µM; inhibition at 50 µM (HepG-2 (liver cancer); HepG2, read-out: Inhibition rate HepG-2): 69.1%; MIC (Bacillus subtilis; read-out: MIC Bacillus subtilis): 5.3 ± 0.29 µg/mL; MIC (Bacillus subtilis; [11]): 5.3 ± 0.29 µM; MIC (Staphylococcus aureus; read-out: MIC Staphylococcus aureus): 59.54 ± 0.5 µg/mL; MIC (Staphylococcus aureus; [12]): 59.54 ± 0.5 µM; IC50 (A549 (lung cancer); A549, read-out: IC50 A549): 32.3 ± 2.36 µM; inhibition at 50 µM (A549 (lung cancer); A549, read-out: Inhibition rate A549): 21.5%
12 | COC(=O)[C@]1(Cc2ccc(O)c(CC(O)C(C)(C)O)c2)OC(=O)C(O)=C1c1ccc(O)cc1 (stereo partly drawn) [Compound 9, butyrolactones VI] | 8.47 | 17.7 | 5.43 | 3.76 | 19.6 | 0.29 | – | EC50 [1]: 12.2 ± 0.78 µM; IC50 ([1]; as given in abstract, read-out: radical scavenging activities against DPPH, IC50): 12.2 ± 0.78 µM
13 | C=CC(C)(C)[C@@]12C[C@H]3C(=O)Nc4ccccc4C(=O)N3[C@H]1N(C=O)c1ccccc12 [Compound 10, epi-aszonalenins B] | 32.9 | 42.2 | 6.7 | 0.3 | 12.6 | 0.73 | 0.40 | –
14 | CCCCCCCc1c(O)cc(CC=C(C)C)c(O)c1C=O [Compound 11, flavoglaucin] | 0.81 | 0.49 | 0.39 | 17.5 | 13 | 1.53 | 18.20 | –
15 | COC(=O)C1=C[C@@H](O)[C@@H](O)[C@H](O)C1 [Compound 13, methyl shikimate] | 0.59 | 0.66 | 0.66 | 7.69 | 11.8 | 0.36 | 32.90 | –

From paper PMC8877224, “Diverse Secondary Metabolites from the Coral-Derived Fungus Aspergillus hiratsukae SCSIO 5Bn1003” (Marine Drugs, 2022)
